Molecules are shown by their SMILES.

For `NC1=NC(C23CC4CC(CC(C4)C2)C3)N(c2ccc(Cl)cc2)C(N)=N1` (stereo not shown) [Example free base, 4,6-Diamino-1,2-dihydro-1-(4-chlorophenyl)-2-(1-tricyclo[3.3.1.1^3,7]decyl)-1,3,5-triazine], the melting point (usually the temperature, or range, at which the solid turns liquid) lay in the range of 168 to 170 °C.

Source of the values: patent US20080045477A1, “Series Of New 4,6-Diamino-1,2-Dihydro-1-Aryl-1,3,5-Triazines, Substituted By An Adamantyl Moiety In The Position 2 Of Triazine-Their Corresponding Salts, Isomers,Steroisomers, Enantiomers, Free Bases And The Complexes Of All The Above With Natural Macromolecules And Their Synthetic Derivatives” (priority 2001, published 2008).
